The results in this text go back to patent US20070116822A1, “HIGH-POTENCY SWEETENER COMPOSITION WITH SAPONIN AND COMPOSITIONS SWEETENED THEREWITH” (THE COCA-COLA COMPANY, priority 2005, published 2007).

Series [1] is classed as physicochemical. The protocol: A solution of rebaudioside A (>97% pure by HPLC ) was prepared in double distilled water (12.5 gm in 50 mL, 25% concentration) by stirring the mixture at 40° C. for 5 minutes. An amorphous form of rebaudioside A was formed by immediately using the clear solution for spray drying with the Lab-Plant spray drier SD-04 instrument (Lab-Plant Ltd., West Yorkshire, U.K.). The solution was fed through the feed pump into the nozzle atomizer which atomized it into a spray of droplets with the help of a constant flow of nitrogen/air. […] This dry powder (11-12 g, H2O 6.74%) was discharged continuously from the drying chamber and was collected in a bottle.

Series [2] can be described thus: Sensory evaluation of sweetness linger by a panel of experts. Format: in vivo. Set-up: key: 0=no sweetness linger; 1=very slight sweetness linger; 2=slight sweetness linger; 3=moderate sweetness linger; 4=moderately high sweetness linger; 5=high sweetness linger. As to conditions: for Sweetness linger rating: scale 0-5; for Sweetness Linger rating (defined scale anchors): rating defined for the protocol, REBA control sample 500 ppm. The protocol: As used herein, the phrases “sugar-like characteristic,” “sugar-like taste,” “sugar-like sweet,” “sugary,” and “sugar-like” are synonymous. […] These characteristics are dimensions in which the taste of sucrose is different from the tastes of natural and synthetic high-potency sweeteners. Whether or not a characteristic is more sugar-like is determined by expert sensory panel assessments of sugar and compositions comprising at least one natural and/or synthetic high-potency sweetener, both with and without a sweet taste improving composition. Such assessments quantify similarities of the characteristics of compositions comprising at least one natural and/or synthetic high-potency sweetener, both with and without a sweet taste improving composition, with those comprising sugar. Suitable procedures for determining whether a composition has a more sugar-like taste are well known in the art.
In a particular embodiment, a panel of assessors is used to measure the reduction of sweetness linger. Briefly described, a panel of assessors (generally 8 to 12 individuals) is trained to evaluate sweetness perception and measure sweetness at several time points from when the sample is initially taken into the mouth until 3 minutes after it has been expectorated. […] A decrease in score for a time point measured after the sample has cleared the mouth indicates there has been a reduction in sweetness perception.
The panel of assessors may be trained using procedures well known to those of ordinary skill in the art. In a particular embodiment, the panel of assessors may be trained using the Spectrum™ Descriptive Analysis Method (Meilgaard et al, Sensory Evaluation Techniques, 3rd edition, Chapter 11). Desirably, the focus of training should be the recognition of and the measure of the basic tastes; specifically, sweet. In order to ensure accuracy and reproducibility of results, each assessor should repeat the measure of the reduction of sweetness linger about three to about five times per sample, taking at least a five minute break between each repetition and/or sample and rinsing well with water to clear the mouth.
Generally, the method of measuring sweetness comprises taking a 10 mL sample into the mouth, holding the sample in the mouth for 5 seconds and gently swirling the sample in the mouth, rating the sweetness intensity perceived at 5 seconds, expectorating the sample (without swallowing following expectorating the sample), rinsing with one mouthful of water (e.g., vigorously moving water in mouth as if with mouth wash) and expectorating the rinse water, rating the sweetness intensity perceived immediately upon expectorating the rinse water, waiting 45 seconds and, while wating those 45 seconds, identifying the time of maximum perceived sweetness intensity and rating the sweetness intensity at that time (moving the mouth normally and swallowing as needed), rating the sweetness intensity after another […], rating the sweetness intensity after another 60 seconds (cumulative 120 seconds after rinse), and rating the sweetness intensity after still another 60 seconds (cumulative 180 seconds after rinse). Between samples take a 5 minute break, rinsing well with water to clear the mouth.
Sensory evaluation of the samples prepared in Example Set G was carried out under the following protocol, similar to that described hereinabove. In this test protocol, none of the samples were swallowed. All samples were expectorated and the mouth was rinsed with water after the tasting. Immediately upon sensing maximal sweetness, the sample was expectorated, the mouth was rinsed with water and the rate of sweetness decay (“Sweetness Linger”) was measured, where attention was focused on the sweetness 3-4 min after the water rinse. After sample tasting was complete, a salty oyster cracker was chewed followed by a water rinse, and at least 5 minutes followed before tasting the next sample. […]

Where [3] appears, read: Example Set G, citric acid/potassium citrate composition equivalent to diet lemon-lime beverage, sweetness 3-4 min after water rinse.
Where [4] appears, read: Example Set H, carbon-treated water, phosphoric acid (75%) to pH 2.4-2.5, protocol of Example Set G.

As to rebaudioside A [Form 4], in series [1], the “Solubility in water at room temperature” value is reported as above 35.0%.

As for rebaudioside A, the Sweetness linger rating in series [2] (setting [3]) and in series [2] (setting [4]) was 5 each time. Besides, in series [2], the “Sweetness Linger rating (defined scale anchors)” value is recorded as 5.

Regarding `OC[C@H]1O[C@@](CO)(O[C@H]2O[C@H](CO)[C@@H](O)[C@H](O)[C@H]2O)[C@@H](O)[C@@H]1O` [sugar, sucrose], the Sweetness linger rating in series [2] (setting [3]) and in series [2] (setting [4]) was 0 throughout. For the same compound, the “Sweetness Linger rating (defined scale anchors)” value in series [2] amounted to 0.
